Assay results reported in paper PMC5218480 (PLoS ONE, 2017).

Test system: MV-4-11 cells
Experiment: Gene expression microarray analysis (Affymetrix PrimeView) and GSEA
Type: cell-based, human
Parameters: RFU PODN (11730768_x_at) / Fold change /veh PODN (11730768_x_at) / RFU LINC00158 (11744669_a_at) / Fold change /veh LINC00158 (11744669_a_at) / RFU DUSP10 (11751237_a_at) / Fold change /veh DUSP10 (11751237_a_at) / RFU ID3 (11757404_x_at) / Fold change /veh ID3 (11757404_x_at) / RFU PLEKHG5 (11737974_s_at) / Fold change /veh PLEKHG5 (11737974_s_at) / RFU LRRC4B (11730491_at) / Fold change /veh LRRC4B (11730491_at) / RFU GIMAP4 (11747438_a_at) / Fold change /veh GIMAP4 (11747438_a_at) / RFU KRT8 (11758183_x_at) / Fold change /veh KRT8 (11758183_x_at) / RFU CNN1 (11734310_a_at) / Fold change /veh CNN1 (11734310_a_at) / RFU VPS37D (11726825_at) / Fold change /veh VPS37D (11726825_at) / RFU C10orf10 (11716522_x_at) / Fold change /veh C10orf10 (11716522_x_at) / RFU KIR2DL2 /// KIR2DL4 /// KIR2DL5A /// KIR2DL5B /// KIR2DS1 /// KIR2DS2 /// KIR2DS3 /// KIR2DS4 /// KIR3DL3 /// KIR3DL3 /// KIR3DS1 (11738374_at) / Fold change /veh KIR2DL2 /// KIR2DL4 /// KIR2DL5A /// KIR2DL5B /// KIR2DS1 /// KIR2DS2 /// KIR2DS3 /// KIR2DS4 /// KIR3DL3 /// KIR3DL3 /// KIR3DS1 (11738374_at) / RFU C1QL1 (11718748_at) / Fold change /veh C1QL1 (11718748_at) / RFU TMPRSS4 (11747572_a_at) / Fold change /veh TMPRSS4 (11747572_a_at) / RFU HAMP (11756126_x_at) / Fold change /veh HAMP (11756126_x_at) / RFU RNFT2 (11725882_a_at) / Fold change /veh RNFT2 (11725882_a_at) / RFU NR4A2 (11747474_a_at) / Fold change /veh NR4A2 (11747474_a_at) / RFU ABCC12 (11746883_a_at) / Fold change /veh ABCC12 (11746883_a_at) / RFU TMEM136 (11760407_x_at) / Fold change /veh TMEM136 (11760407_x_at) / RFU CLDN22 /// WWC2 (11732394_at) / Fold change /veh CLDN22 /// WWC2 (11732394_at) / RFU HLA-DPB1 (11760878_x_at) / Fold change /veh HLA-DPB1 (11760878_x_at) / RFU SPINT1 (11716480_a_at) / Fold change /veh SPINT1 (11716480_a_at) / RFU GAP43 (11754022_s_at) / Fold change /veh GAP43 (11754022_s_at) / RFU A4GNT (11735810_at) / Fold change /veh A4GNT (11735810_at) / RFU PRB3 (11715151_x_at) / Fold change /veh PRB3 (11715151_x_at) / RFU TUBB4B (11761932_at) / Fold change /veh TUBB4B (11761932_at) / RFU CAPN14 (11732068_a_at) / Fold change /veh CAPN14 (11732068_a_at) / RFU TMCC2 (11721928_a_at) / Fold change /veh TMCC2 (11721928_a_at) / RFU IRGQ (11745062_a_at) / Fold change /veh IRGQ (11745062_a_at) / RFU FAM174B (11720279_a_at) / Fold change /veh FAM174B (11720279_a_at) / RFU TMPRSS4 (11748680_a_at) / Fold change /veh TMPRSS4 (11748680_a_at) / RFU FAM212B (11763350_a_at) / Fold change /veh FAM212B (11763350_a_at) / RFU PLEKHG5 (11743358_a_at) / Fold change /veh PLEKHG5 (11743358_a_at) / RFU ZSCAN30 (11745921_a_at) / Fold change /veh ZSCAN30 (11745921_a_at) / RFU CMKLR1 (11741424_a_at) / Fold change /veh CMKLR1 (11741424_a_at) / RFU LOC101060620 /// MAPK8IP1 (11723275_at) / Fold change /veh LOC101060620 /// MAPK8IP1 (11723275_at) / RFU SPTSSB (11747773_x_at) / Fold change /veh SPTSSB (11747773_x_at) / RFU PRSS12 (11739890_at) / Fold change /veh PRSS12 (11739890_at) / RFU BIN1 (11741810_x_at) / Fold change /veh BIN1 (11741810_x_at) / RFU WNT11 (11732464_a_at) / Fold change /veh WNT11 (11732464_a_at) / RFU C10orf10 (11716521_a_at) / Fold change /veh C10orf10 (11716521_a_at) / RFU C5orf56 (11738089_at) / Fold change /veh C5orf56 (11738089_at) / RFU CYB561 (11721691_x_at) / Fold change /veh CYB561 (11721691_x_at) / RFU ANKRD19P (11752326_a_at) / Fold change /veh ANKRD19P (11752326_a_at) / RFU OR2T12 /// OR2T33 /// OR2T8 (11738714_s_at) / Fold change /veh OR2T12 /// OR2T33 /// OR2T8 (11738714_s_at) / RFU VCAN (11748164_a_at) / Fold change /veh VCAN (11748164_a_at) / RFU JSRP1 (11732532_at) / Fold change /veh JSRP1 (11732532_at) / RFU KRTAP10-11 (11738290_x_at) / Fold change /veh KRTAP10-11 (11738290_x_at) / RFU MYO3A (11730013_a_at) / Fold change /veh MYO3A (11730013_a_at) / RFU EBF3 (11725865_a_at) / Fold change /veh EBF3 (11725865_a_at) / RFU CAMK2N1 (11719241_x_at) / Fold change /veh CAMK2N1 (11719241_x_at) / RFU C5orf56 (11738088_a_at) / Fold change /veh C5orf56 (11738088_a_at) / RFU OLFML3 (11715873_a_at) / Fold change /veh OLFML3 (11715873_a_at) / RFU LOC100653217 /// NTM (11731650_a_at) / Fold change /veh LOC100653217 /// NTM (11731650_a_at) / RFU MAPK11 (11762145_a_at) / Fold change /veh MAPK11 (11762145_a_at) / RFU FIZ1 (11724087_x_at) / Fold change /veh FIZ1 (11724087_x_at) / RFU OASL (11726364_x_at) / Fold change /veh OASL (11726364_x_at) / RFU SOX15 (11748057_x_at) / Fold change /veh SOX15 (11748057_x_at) / RFU CD79A (11719716_a_at) / Fold change /veh CD79A (11719716_a_at) / RFU HIST1H1D (11736915_at) / Fold change /veh HIST1H1D (11736915_at) / RFU CASKIN2 (11723855_a_at) / Fold change /veh CASKIN2 (11723855_a_at) / RFU LOC730098 (11760151_x_at) / Fold change /veh LOC730098 (11760151_x_at) / RFU OR4N2 (11742367_at) / Fold change /veh OR4N2 (11742367_at) / RFU PRRT2 (11749266_a_at) / Fold change /veh PRRT2 (11749266_a_at) / RFU SNX32 (11753110_a_at) / Fold change /veh SNX32 (11753110_a_at) / RFU CDHR5 (11726645_a_at) / Fold change /veh CDHR5 (11726645_a_at) / RFU RCAN1 (11760418_a_at) / Fold change /veh RCAN1 (11760418_a_at) / RFU FAM167A (11723789_a_at) / Fold change /veh FAM167A (11723789_a_at) / RFU FAM26E (11764081_at) / Fold change /veh FAM26E (11764081_at) / RFU ISYNA1 (11749810_s_at) / Fold change /veh ISYNA1 (11749810_s_at) / RFU ACY1 (11761880_at) / Fold change /veh ACY1 (11761880_at) / RFU 11764098_at / Fold change /veh 11764098_at / RFU SAMD14 (11745864_x_at) / Fold change /veh SAMD14 (11745864_x_at) / RFU NPB (11741838_a_at) / Fold change /veh NPB (11741838_a_at) / RFU TMPRSS6 (11731388_a_at) / Fold change /veh TMPRSS6 (11731388_a_at) / RFU KRTAP10-2 (11738614_at) / Fold change /veh KRTAP10-2 (11738614_at) / RFU ARHGAP8 /// PRR5-ARHGAP8 (11727945_x_at) / Fold change /veh ARHGAP8 /// PRR5-ARHGAP8 (11727945_x_at) / RFU KRTAP5-7 /// NADSYN1 (11734609_at) / Fold change /veh KRTAP5-7 /// NADSYN1 (11734609_at) / RFU RASL12 (11751679_a_at) / Fold change /veh RASL12 (11751679_a_at) / RFU CDKN2B (11736163_a_at) / Fold change /veh CDKN2B (11736163_a_at) / RFU PRF1 (11729649_at) / Fold change /veh PRF1 (11729649_at) / RFU, ZNF638 /// ZNF638-IT1 / Fold change vs veh, ZNF638 /// ZNF638-IT1 / RFU, PANK3 / Fold change vs veh, PANK3 / RFU, SH3YL1 / Fold change vs veh, SH3YL1 / RFU, ZEB2 / Fold change vs veh, ZEB2 / RFU, NRIP1 / Fold change vs veh, NRIP1 / RFU, PTTG1IP / Fold change vs veh, PTTG1IP / RFU, CAPN2 / Fold change vs veh, CAPN2 / RFU, MED14 / Fold change vs veh, MED14 / RFU, SNORA58 / Fold change vs veh, SNORA58 / RFU, C1orf63 / Fold change vs veh, C1orf63 / RFU, LRRFIP1 / Fold change vs veh, LRRFIP1 / RFU, NDUFAF7 / Fold change vs veh, NDUFAF7 / RFU, SLC12A2 / Fold change vs veh, SLC12A2 / RFU, IBTK / Fold change vs veh, IBTK / RFU, ESF1 / Fold change vs veh, ESF1 / Fold change vs veh, TMEM50B / RFU, TAOK1 / Fold change vs veh, TAOK1 / RFU, ACBD3 / Fold change vs veh, ACBD3 / RFU, TMA16 / Fold change vs veh, TMA16 / RFU, RWDD3 / Fold change vs veh, RWDD3 / RFU, BCAT1 / Fold change vs veh, BCAT1 / RFU, EDEM3 / Fold change vs veh, EDEM3 / RFU, TMEM33 / Fold change vs veh, TMEM33 / RFU, WDR75 / Fold change vs veh, WDR75 / RFU, AHCTF1 / Fold change vs veh, AHCTF1 / RFU, TFRC / Fold change vs veh, TFRC / RFU, ZDHHC17 / Fold change vs veh, ZDHHC17 / RFU, NOM1 / Fold change vs veh, NOM1 / RFU, ARL8B / Fold change vs veh, ARL8B / RFU, ZBTB11 / Fold change vs veh, ZBTB11 / RFU, TAMM41 / Fold change vs veh, TAMM41 / RFU, KIAA1704 /// LOC100996395 / Fold change vs veh, KIAA1704 /// LOC100996395 / RFU, ING1 / Fold change vs veh, ING1 / RFU, TRMT61B / Fold change vs veh, TRMT61B / RFU, FUBP3 / Fold change vs veh, FUBP3 / RFU, TP53 / Fold change vs veh, TP53 / RFU, TNKS2 / Fold change vs veh, TNKS2 / RFU, ZFP14 / Fold change vs veh, ZFP14 / RFU, ACTR2 / Fold change vs veh, ACTR2 / RFU, PPP3R1 / Fold change vs veh, PPP3R1 / RFU, PIK3R1 / Fold change vs veh, PIK3R1 / RFU, HNRNPA1 / Fold change vs veh, HNRNPA1 / RFU, RNF170 / Fold change vs veh, RNF170 / RFU, ZNF28 / Fold change vs veh, ZNF28 / RFU, RNGTT / Fold change vs veh, RNGTT / RFU, OGT / Fold change vs veh, OGT / RFU, BRD1 / Fold change vs veh, BRD1 / RFU, MARS / Fold change vs veh, MARS / RFU, ZNF655 / Fold change vs veh, ZNF655 / RFU, FAHD1 / Fold change vs veh, FAHD1 / RFU, BDP1 / Fold change vs veh, BDP1 / RFU, LRRCC1 / Fold change vs veh, LRRCC1 / RFU, ARID1A / Fold change vs veh, ARID1A / RFU, ZNF146 / Fold change vs veh, ZNF146 / RFU, ZNF330 / Fold change vs veh, ZNF330 / RFU, GPN3 / Fold change vs veh, GPN3 / RFU, C9orf123 / Fold change vs veh, C9orf123 / RFU, N4BP2L2 / Fold change vs veh, N4BP2L2 / RFU, ARFIP1 / Fold change vs veh, ARFIP1 / RFU, FAM179B / Fold change vs veh, FAM179B / RFU, BCL10 / Fold change vs veh, BCL10 / RFU, UHRF1BP1L / Fold change vs veh, UHRF1BP1L / RFU, BET1 / Fold change vs veh, BET1 / RFU, CNOT2 / Fold change vs veh, CNOT2 / RFU, ZNF268 / Fold change vs veh, ZNF268 / Fold change vs veh, ZNF507 / RFU, DGCR2 / Fold change vs veh, DGCR2 / RFU, WDSUB1 / Fold change vs veh, WDSUB1 / Fold change vs veh, HSP90B1 /// MIR3652 / RFU, ADSS / Fold change vs veh, ADSS / RFU, GK / Fold change vs veh, GK / RFU, ZNF148 / Fold change vs veh, ZNF148 / RFU, TAF9 / Fold change vs veh, TAF9 / RFU, SLC1A5 / Fold change vs veh, SLC1A5 / RFU, SLMO2 / Fold change vs veh, SLMO2 / RFU, ABCC4 / Fold change vs veh, ABCC4 / RFU, LOC101060439 /// RAP1B / Fold change vs veh, LOC101060439 /// RAP1B / RFU, RFX7 / Fold change vs veh, RFX7 / RFU, GTPBP10 / Fold change vs veh, GTPBP10 / RFU, CNEP1R1 / Fold change vs veh, CNEP1R1 / RFU, BIVM-ERCC5 /// ERCC5 / Fold change vs veh, BIVM-ERCC5 /// ERCC5 / RFU, ILF3 / Fold change vs veh, ILF3 / RFU 11762660_at / Fold change /veh 11762660_at / RFU VCAN (11757783_s_at) / Fold change /veh VCAN (11757783_s_at) / RFU DDX43 (11728927_at) / Fold change /veh DDX43 (11728927_at) / RFU KRT8 (11758188_x_at) / Fold change /veh KRT8 (11758188_x_at) / RFU NKD1 (11759106_at) / Fold change /veh NKD1 (11759106_at) / RFU SRD5A1 (11742802_a_at) / Fold change /veh SRD5A1 (11742802_a_at) / RFU TPSAB1 /// TPSB2 (11721975_s_at) / Fold change /veh TPSAB1 /// TPSB2 (11721975_s_at) / RFU GSTM3 (11746129_a_at) / Fold change /veh GSTM3 (11746129_a_at) / RFU IL23R (11737362_x_at) / Fold change /veh IL23R (11737362_x_at) / RFU TMEM51 (11727254_a_at) / Fold change /veh TMEM51 (11727254_a_at) / RFU PIWIL2 (11732686_x_at) / Fold change /veh PIWIL2 (11732686_x_at) / RFU ORM1 (11744905_x_at) / Fold change /veh ORM1 (11744905_x_at) / RFU CCDC152 (11743942_at) / Fold change /veh CCDC152 (11743942_at) / RFU ECM1 (11717891_a_at) / Fold change /veh ECM1 (11717891_a_at) / RFU IL23R (11748794_a_at) / Fold change /veh IL23R (11748794_a_at) / RFU TNFAIP8L3 (11732012_x_at) / Fold change /veh TNFAIP8L3 (11732012_x_at) / RFU MBOAT4 (11741988_at) / Fold change /veh MBOAT4 (11741988_at) / RFU 11764193_at / Fold change /veh 11764193_at / RFU TMEM53 (11763286_at) / Fold change /veh TMEM53 (11763286_at) / RFU MAGEB2 (11727129_at) / Fold change /veh MAGEB2 (11727129_at) / RFU TMEM200A (11744735_a_at) / Fold change /veh TMEM200A (11744735_a_at) / RFU CCDC152 (11751479_a_at) / Fold change /veh CCDC152 (11751479_a_at) / RFU FAM211A (11726209_a_at) / Fold change /veh FAM211A (11726209_a_at) / RFU RGS16 (11746705_a_at) / Fold change /veh RGS16 (11746705_a_at) / RFU VCAN (11755009_s_at) / Fold change /veh VCAN (11755009_s_at) / RFU RHOB (11743442_s_at) / Fold change /veh RHOB (11743442_s_at) / RFU RGS16 (11720943_a_at) / Fold change /veh RGS16 (11720943_a_at) / RFU RGS16 (11720944_at) / Fold change /veh RGS16 (11720944_at) / RFU, VPS4B / Fold change vs veh, VPS4B / RFU, CREB1 / Fold change vs veh, CREB1 / RFU, DNAJC13 / Fold change vs veh, DNAJC13 / RFU, GNAQ / Fold change vs veh, GNAQ / RFU, CDK5R1 / Fold change vs veh, CDK5R1 / RFU, ZRANB3 / Fold change vs veh, ZRANB3 / RFU, CUL4A / Fold change vs veh, CUL4A / RFU, CCNY / Fold change vs veh, CCNY / RFU, UFL1 / Fold change vs veh, UFL1 / RFU, COG3 / Fold change vs veh, COG3 / RFU, DIAPH2 / Fold change vs veh, DIAPH2 / RFU, SKA2 / Fold change vs veh, SKA2 / RFU, AFF3 / Fold change vs veh, AFF3 / RFU, LMF1 / Fold change vs veh, LMF1 / RFU, IPO11 / Fold change vs veh, IPO11 / RFU, DFFB / Fold change vs veh, DFFB / RFU, FOXP1 / Fold change vs veh, FOXP1 / RFU, CARD8 / Fold change vs veh, CARD8 / RFU, STRN3 / Fold change vs veh, STRN3 / RFU, ADK / Fold change vs veh, ADK / RFU, RASSF2 / Fold change vs veh, RASSF2 / RFU, WIPF1 / Fold change vs veh, WIPF1 / RFU, LARP1B / Fold change vs veh, LARP1B / RFU, RASA1 / Fold change vs veh, RASA1 / RFU, RB1 / Fold change vs veh, RB1 / RFU, PPFIA1 / Fold change vs veh, PPFIA1 / RFU, MAT2A / Fold change vs veh, MAT2A / RFU, CCT5 / Fold change vs veh, CCT5 / RFU, WDR92 / Fold change vs veh, WDR92 / RFU, CUX1 / Fold change vs veh, CUX1 / RFU, TTC7A / Fold change vs veh, TTC7A / RFU, TMEM135 / Fold change vs veh, TMEM135 / RFU, DEPTOR / Fold change vs veh, DEPTOR / RFU, CPM / Fold change vs veh, CPM / RFU, DNAJB6 / Fold change vs veh, DNAJB6 / RFU, CACNA2D3 / Fold change vs veh, CACNA2D3 / RFU, DTX4 / Fold change vs veh, DTX4 / RFU, TFCP2 / Fold change vs veh, TFCP2 / RFU, GMCL1 /// GMCL1P1 / Fold change vs veh, GMCL1 /// GMCL1P1 / RFU, AEBP2 / Fold change vs veh, AEBP2 / RFU, SNHG1 /// SNORD22 /// SNORD25 /// SNORD26 /// SNORD27 /// SNORD28 /// SNORD29 /// SNORD31 / Fold change vs veh, SNHG1 /// SNORD22 /// SNORD25 /// SNORD26 /// SNORD27 /// SNORD28 /// SNORD29 /// SNORD31 / Fold change (Aza/veh), C12orf56 (ProbeSet 11735607_a_at) / Fold change (ACY-1035/veh), C12orf56 (ProbeSet 11735607_a_at) / Fold change (Aza/veh), FGFR1OP (ProbeSet 11751329_s_at) / Fold change (ACY-1035/veh), FGFR1OP (ProbeSet 11751329_s_at) / Fold change (Aza/veh), VPS36 (ProbeSet 11739960_a_at) / Fold change (ACY-1035/veh), VPS36 (ProbeSet 11739960_a_at) / RFU SYPL1 (11715823_x_at) / Fold change /veh SYPL1 (11715823_x_at) / RFU IGFBP7 (11715501_s_at) / Fold change /veh IGFBP7 (11715501_s_at) / RFU REEP3 (11722064_at) / Fold change /veh REEP3 (11722064_at) / RFU IGLL1 (11728026_x_at) / Fold change /veh IGLL1 (11728026_x_at): dose or concentration left out as unconfirmed
Conditions: ProbeSet 11762504_a_at; LIST D

Nc1ncn([C@@H]2O[C@H](CO)[C@@H](O)[C@H]2O)c(=O)n1 [azacitidine]
Fold change vs veh, ZRANB3: 0.82
